Our source for the pKa values is US7638506B2, “Granular agrochemical composition” (Kumiai Chemical Industry Co., Ltd., priority 2002, dated 2009).

One data set is described as follows: pKa of the acidic agrochemically active ingredient. In kind it is physicochemical.
Conditions: not given
An excerpt: In the case of using the above-described acidic agrochemically active ingredient having the prescribed pKa, the pKa of the ingredient can be measured by, for example, a method described in “Jikken Kagaku Koza 5, (Thermal measurement and Equilibrium)”, Maruzene, p. 469-474, Jan. 20 (1958) and the like.
In turn, `CCOP(=O)(Sc1ccccc1)Sc1ccccc1` [EDDP] yielded a pKa of 10.5.

In the case of `COC(=O)c1ccccc1CS(=O)(=O)NC(=O)Nc1nc(OC)cc(OC)n1` [bensulfuron-methyl, methyl α-(4,6-dimethoxypyrimidin-2-ylcarbamoylsulfamoyl)-o-toluate], the pKa amounted to 5.03.

Compound `Cc1cccc2sc3nncn3c12` [tricyclazole, 5-methyl-1,2,4-triazolo[3,4-b]benzothiazole] yielded a pKa of 1.6.

`CNC(=O)Oc1ccccc1OC(C)C` [PHC] showed a pKa of 11.5.

In turn, `COCc1cccc(C(O)c2nc(OC)cc(OC)n2)c1NS(=O)(=O)C(F)F` (stereo not drawn) [Compound A, 2-[(4,6-dimethoxypyrimidin-2-yl)hydroxymethyl]-6-methoxymethyl-N-difuloromethanesulfonylanilide] had a pKa of 5.75.

`CCc1cccc(C(O)c2nc(OC)cc(OC)n2)c1NS(=O)(=O)C(F)F` (stereo not drawn) [Compound B, 2-[(4,6-dimethoxypyrimidin-2-yl)hydroxymethyl]-6-ethyl-N-difuloromethanesulfonylanilide]: the pKa is 6.17.

Still in this data set, the particulars now being: read-out: pKa.
Consider `COc1cc(OC)nc(NC(=O)NS(=O)(=O)c2c(-c3nnn(C)n3)cnn2C)n1` [azimsulfuron, 1-(4,6-dimethoxypyrimidin-2-yl)-3-[1-methyl-4-(2-methyl-2H-tetrazol-5-yl)pyrazol-5-ylsulfonyl]urea], for which the pKa is 3.6.

Turning to `COc1cc(OC)nc(NC(=O)NS(=O)(=O)c2c(Cl)nc3ccccn23)n1` [imazosulfuron, 1-(2-chloroimidazo[1,2-a]pyridin-3-ylsulfonyl)-3-(4,6-dimethoxypyrimidin-2-yl)urea], the pKa came to 4.

Consider `CCOC(=O)c1cnn(C)c1S(=O)(=O)NC(=O)Nc1nc(OC)cc(OC)n1` [pyrazosulfuron-ethyl, ethyl 5-(4,6-dimethoxypyrimidin-2-ylcarbamoylsulfamoyl)-1-methylpyrazole-4-carboxylate], for which the pKa was found to be 3.91.
